According to patent US11779569B2, “Methods and compositions for treating hyperhidrosis” (THERAVIDA, INC., priority 2016, dated 2023):

Assays:
[1] = test system: subjects with primary focal hyperhidrosis; assay: Hyperhidrosis Disease Severity Scale (HDSS), crossover clinical study; type: in vivo, human; conditions: BID by mouth, 21-day treatment period; 1 point drop=50% reduction in sweating, 2 points=80% reduction
Source text: (§1) The clinical study was a randomized, double blind, placebo-controlled, crossover study of approximately 18 subjects. Following qualification, subjects were randomized to one of 6 groups/sequences during which they received each of the three study treatments in sequential treatment periods. Each 21-day double-blind study treatment period was preceded by an at least 7-day washout period. Subsequent study treatment assignments were via the sequential three-way crossover design prescribed in that group. After completing the final study treatment period or early study treatment discontinuation, all subjects completed an end of study visit (approximately 14 days after the last study treatment administration. FIG. 5 illustrates a scheme of the clinical study design.
Subjects were randomized to 1 of 6 groups/sequences of study treatment administration. […]
(§2) Efficacy and safety analyses were conducted on study treatment (THVD-102 [7.5/7.5], oxybutynin or placebo). […] There was a statistically significant effect in each of three measures of efficacy: • 1) Hyperhidrosis Disease Severity Scale (p=0.03-0.05) • THVD-102 [7.5/7.5]=1.06±1.11; Oxybutynin=1.33±1.03; placebo=0.5±0.62 1 point drop=50% reduction in sweating; 2 points=80% reduction • 2) Hyperhidrosis Visual Analog Scale (p=0.01) • 3) Hyperhidrosis Visual Quantification Scale (p=0.005-0.07)

[2] = test system: subjects with primary focal hyperhidrosis; assay: Dry Mouth Visual Analog Scale (DMVAS), crossover clinical study; type: in vivo, human; conditions: 100 mm scale, 100 = worst; PP; n 18
Source text: as §1, with “After completing the final study treatment period or early study treatment discontinuation, all subjects completed an end of study visit (approximately 14 days after the last study treatment administration. FIG. 5 illustrates a scheme of the clinical study design.” left out
The DMVAS will be used to quantify the severity of dry mouth experienced by subjects during this clinical trial. […] The score was determined by measuring the distance from the left anchor to where the line that the subject drew bisected the (100 mm) scale. The distance was measured and recorded in millimeters (mm). […]
as §2

[3] = test system: subjects with primary focal hyperhidrosis; assay: Dry Mouth Questions (Dry Mouth Severity/Incidence Questionnaire), crossover clinical study; type: in vivo, human; conditions: PP, n 18
Source text: as §1
The active control of oxybutynin 7.5 mg is the comparator for THVD-102 [7.5/7.5] for the anti-muscarinic induced dry mouth symptom incidence and severity.
Subjects were randomized to 1 of 6 groups/sequences of study treatment administration. Each sequence included sequential crossover assignment to a 21-day treatment period of: • oxybutynin 7.5 mg BID alone by mouth; • THVD-102 [7.5/7.5] (oxybutynin 7.5 mg in combination with pilocarpine 7.5 mg) BID by mouth; and • placebo BID by mouth.
Dry Mouth Questions (Dry Mouth Severity/Incidence Questionnaire)
At the end of the end of each treatment period, investigational site staff questioned subjects regarding the incidence of dry mouth. This assessment occurred after the subject had completed the DMVAS and DTVAS and included questions relating to the incidence and severity of dry mouth symptoms and remedial actions taken. The investigator was instructed to query subjects in a non-judgmental, non-leading manner using the following script (© 2012, Thomas Tremblay and Robin Allgren) to elicit the incidence of dry mouth: • Have you had any dry mouth since starting (the most recent) study treatment? (at completion of Treatment Periods 1, 2, and 3)
as §2, with “placebo). Continuous data were summarized by using descriptive statistics (mean, SD, median, min, max) and categorical data were summarized in frequency tables. Using Day 1 of the first and each subsequent Treatment Period as baselines for measuring treatment effect, a Wilcoxon signed-rank test were performed.” for “placebo).”

[4] = Jacobs 1996; Cheshire and Fealey 2008; Salagen product insert; cited from earlier work

Structure (SMILES) | Hyperhidrosis Disease Severity Scale [1] | Dry mouth Visual Analog Scale, Change D0-D21 [2] | Moderate/Severe dry mouth, number of subjects [3] | Moderate/Severe dry mouth, percent of subjects [3] | None/Mild dry mouth, number of subjects [3] | None/Mild dry mouth, percent of subjects [3] | effect on sweating [4]
CCN(CC)CC#CCOC(=O)C(O)(c1ccccc1)C1CCCCC1 (stereo not shown) [Oxybutynin, 4-Diethylaminobut-2-ynyl 2-cyclohexyl-2-hydroxy-2-phenylethanoate] | 1.33±1.03 | 43.9 ± 27.9 mm | 13 | 72% | 5 | 27% | –
CC[C@@H]1C(=O)OC[C@@H]1Cc1cncn1C [pilocarpine, (3S,4R)-3-Ethyl-4-((1-methyl-1H-imidazol-5-yl)methyl)dihydrofuran-2(3H)-one] | – | – | – | – | – | – | known to cause an increase in sweating
